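Method: 48-hour compound exposure of cells in 96-well plates, five concentrations, linear interpolation of endpoints. GI50 is the concentration that inhibits growth by half. TGI is the concentration that stops growth completely.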
Tests used:
Assay in all cases: growth of human tumour cells (NCI), 48 h
A498 renal = system: A498 renal
ACHN renal = system: ACHN renal
DU-145 prostate = system: DU-145 prostate
HOP-92 NSCLC = system: HOP-92 NSCLC
HS 578T breast = system: HS 578T breast
MALME-3M melanoma = system: MALME-3M melanoma
NCI-H522 lung = system: NCI-H522 lung
SK-MEL-28 melanoma = system: SK-MEL-28 melanoma
SR leukemia = system: SR leukemia
SW-620 colon = system: SW-620 colon

Row | Compound | TGI (A498 renal) [µM] | TGI (ACHN renal) [µM] | TGI (DU-145 prostate) [µM] | TGI (HOP-92 NSCLC) [µM] | TGI (HS 578T breast) [µM] | TGI (MALME-3M melanoma) [µM] | TGI (NCI-H522 lung) [µM] | TGI (SK-MEL-28 melanoma) [µM] | TGI (SR leukemia) [µM] | TGI (SW-620 colon) [µM] | GI50 (A498 renal) [µM] | GI50 (ACHN renal) [µM] | GI50 (DU-145 prostate) [µM] | GI50 (HOP-92 NSCLC) [µM] | GI50 (HS 578T breast) [µM] | GI50 (MALME-3M melanoma) [µM] | GI50 (NCI-H522 lung) [µM] | GI50 (SK-MEL-28 melanoma) [µM] | GI50 (SR leukemia) [µM] | GI50 (SW-620 colon) [µM]
1 | Cn1c(SCc2ccc(F)cc2)nnc1C12CC3CC(CC(C3)C1)C2 | 48.4 | > 100 | > 100 | 77.1 | 85.1 | 60.8 | > 100 | 86.2 | 93.9 | > 100 | – | – | – | – | – | – | – | – | – | –
2 | NS(=O)(=O)c1ccc(NC(=S)/N=C/C2=C(O)c3ccccc3C2=O)cc1 | > 100 | > 100 | > 100 | > 100 | > 100 | > 100 | > 100 | > 100 | > 100 | > 100 | – | – | – | – | – | – | – | – | – | –
3 | O=C1OC(C2Cc3ccc4ccccc4c3C2=O)c2ccccc21 (stereo not drawn) | > 100 | > 100 | > 100 | > 100 | 88.9 | > 100 | > 100 | > 100 | > 100 | > 100 | – | – | – | – | – | – | – | – | – | –
4 | NCCCN1c2ccccc2Sc2ccc(Cl)cc21 | > 10 | > 10 | > 10 | > 10 | > 10 | > 10 | > 5.15 | > 10 | > 8.89 | > 7 | – | – | – | – | – | – | – | – | – | –
5 | CC1=CCC([C@@](C)(O)CCCC(C)(C)N=C=S)CC1 (stereo partly drawn) | 28.7 | 30.5 | 30.7 | 33.1 | 55.4 | 28.3 | 33.8 | 30.2 | 41.7 | 32.6 | – | – | – | – | – | – | – | – | – | –
6 | Oc1cc(Cl)cc2cccnc12 | 59.6 | > 91.6 | > 89.7 | > 100 | > 48.5 | 54.5 | 5.32 | > 100 | 4.27 | 19.7 | – | – | – | – | – | – | – | – | – | –
7 | O=C1c2cc(-c3ccccc3)cnc2S(=O)(=O)N1c1ccc(Br)cc1 | > 100 | > 100 | > 100 | 72.1 | 70.6 | 96.9 | 54.6 | > 100 | 35 | > 100 | – | – | – | – | – | – | – | – | – | –
8 | O=C(O)CN1CCNCCN(CC(=O)O)CCN(CC(=O)O)CCNCC1 | > 100 | > 100 | > 100 | > 100 | > 100 | > 100 | > 100 | > 100 | > 100 | > 100 | – | – | – | – | – | – | – | – | – | –
9 | Cc1nn(-c2ccccc2)c2c1C(c1cc3ccccc3nc1Cl)NC(=O)N2 (stereo not drawn) | 62 | 35.8 | > 100 | 32.1 | 96.2 | 51.8 | 35.4 | – | > 100 | 36.7 | – | – | – | – | – | – | – | – | – | –
10 | CC(C)(C)[Si](C)(C)OCC1OC(n2ccc(=O)[nH]c2=O)C(O[Si](C)(C)C(C)(C)C)/C1=C/C#N (stereo not drawn) | 76.6 | > 60.5 | > 100 | > 68.8 | > 100 | > 100 | > 100 | > 71.5 | > 100 | > 100 | – | – | – | – | – | – | – | – | – | –
11 | Cc1c(O)nc(-n2[nH]c3c(c2=O)CCCC3)[nH]c1=O | > 100 | > 100 | > 100 | > 100 | > 100 | > 100 | > 100 | > 100 | > 100 | > 100 | – | – | – | – | – | – | – | – | – | –
12 | CSC1=N/C(=C\c2ccc(C)cc2)C(=O)N1CN1CCCCC1 | > 100 | > 100 | > 100 | > 100 | > 100 | > 100 | > 100 | > 100 | > 100 | > 100 | – | – | – | – | – | – | – | – | – | –
13 | C=CCc1cc(-c2nc(=S)[nH][nH]2)ccc1N=NNc1ccc(C(=O)O)cc1 | > 100 | > 100 | > 100 | > 100 | > 100 | > 100 | > 100 | > 100 | > 100 | > 100 | – | – | – | – | – | – | – | – | – | –
14 | COc1ccc(N2C(=O)CC(=O)N(NC(=O)C(C)Oc3ccccc3C)C2=S)cc1 (stereo not drawn) | > 100 | > 100 | > 100 | > 100 | > 100 | > 100 | > 100 | > 100 | > 100 | > 100 | – | – | – | – | – | – | – | – | – | –
15 | C=C1C(=O)CC2C1CC(=O)/C(C)=C/CCC(C)(O)C2O (stereo not drawn) | 48.4 | 4.92 | 19.7 | 15.8 | 26.5 | 3.01 | 3.04 | 33.3 | > 37.6 | > 33.7 | – | – | – | – | – | – | – | – | – | –
16 | Cc1nc(C)c(N2CCN([N+](=O)[O-])CC2)c(=O)[nH]1 | > 100 | > 100 | > 100 | > 100 | > 100 | > 100 | > 100 | > 100 | > 100 | > 100 | – | – | – | – | – | – | – | – | – | –

Row | Compound | TGI (A498 renal) [µM] | TGI (ACHN renal) [µM] | TGI (DU-145 prostate) [µM] | TGI (HOP-92 NSCLC) [µM] | TGI (HS 578T breast) [µM] | TGI (MALME-3M melanoma) [µM] | TGI (NCI-H522 lung) [µM] | TGI (SK-MEL-28 melanoma) [µM] | TGI (SR leukemia) [µM] | TGI (SW-620 colon) [µM] | GI50 (A498 renal) [µM] | GI50 (ACHN renal) [µM] | GI50 (DU-145 prostate) [µM] | GI50 (HOP-92 NSCLC) [µM] | GI50 (HS 578T breast) [µM] | GI50 (MALME-3M melanoma) [µM] | GI50 (NCI-H522 lung) [µM] | GI50 (SK-MEL-28 melanoma) [µM] | GI50 (SR leukemia) [µM] | GI50 (SW-620 colon) [µM]
17 | Cc1cccc(C)c1NC(=O)C(Cc1c[nH]c2ccccc12)NC(=O)OCc1ccccc1 (stereo not drawn) | 69.8 | 53.2 | 51.6 | 62.4 | > 100 | 52.8 | 72.7 | 57.1 | 85.7 | > 100 | – | – | – | – | – | – | – | – | – | –
18 | C[n+]1c(/C=C/c2c(O)ccc3ccccc23)ccc2ccccc21 | 9.43 | 11.4 | 13.9 | 6.17 | 21.5 | 12.7 | 10.2 | 15.1 | 3.31 | 16.1 | 2.34 | 5.1 | 6.76 | 0.854 | 5.3 | 5.3 | 2.52 | 7.91 | 1.21 | 6.06
19 | CCOC(=O)c1cccc(N=Nc2nc[nH]c2/C=C/C(=O)OC)c1 | 66.8 | > 100 | > 100 | > 100 | > 100 | 71.8 | > 100 | > 100 | 12 | > 100 | – | – | – | – | – | – | – | – | – | –
20 | COC(C)(C)C1(O)CC[C@@H](C)CC1=O (stereo partly drawn) | > 100 | > 100 | > 100 | > 100 | > 100 | > 100 | > 100 | > 100 | > 100 | > 100 | – | – | – | – | – | – | – | – | – | –
21 | CC(c1ccccc1)N1CCN(C(C)c2ccccc2)CC1 (stereo not drawn) | > 100 | > 100 | > 100 | > 100 | > 100 | > 100 | > 100 | 95.4 | > 100 | > 100 | – | – | – | – | – | – | – | – | – | –
22 | Cc1c2cc[n+](C)c(C)c2cc2c1[nH]c1ccccc12 | > 100 | > 100 | > 78 | 50.8 | 7.54 | 14.2 | 18.2 | 26.4 | > 100 | > 95.1 | – | – | – | – | – | – | – | – | – | –
23 | C[C@H](CCC(=O)O)[C@H]1CC[C@H]2[C@@H]3C(=O)C[C@@H]4C[C@H](O)CC[C@]4(C)[C@H]3C[C@H](O)[C@]12C | > 100 | > 100 | > 100 | > 100 | 78.9 | > 100 | > 100 | > 100 | > 100 | > 100 | – | – | – | – | – | – | – | – | – | –
24 | O=C(O)CCNc1ncnc2nc[nH]c12 | > 100 | > 100 | > 100 | > 100 | > 100 | > 100 | > 100 | > 100 | > 100 | > 100 | – | – | – | – | – | – | – | – | – | –
25 | CC1(C)[C@@H]2CC[C@@]1(C)CN(CCC[N+](C)(C)C)C2 | > 100 | > 100 | > 100 | > 100 | > 100 | > 100 | > 100 | > 100 | > 100 | > 100 | – | – | – | – | – | – | – | – | – | –
26 | COc1cc2c(cc1OC)C1C3CCCCC3CCN1CC2 (stereo not drawn) | > 100 | > 100 | > 100 | > 100 | > 100 | > 100 | > 100 | > 100 | > 100 | > 100 | – | – | – | – | – | – | – | – | – | –
27 | C=CCn1c(=O)c(C(=O)Nc2nc(C34CC5CC(CC(C5)C3)C4)cs2)c(O)c2ccccc21 | > 100 | > 100 | > 100 | 84.4 | > 100 | > 100 | > 100 | > 100 | > 100 | > 100 | – | – | – | – | – | – | – | – | – | –
28 | Clc1ccc(-c2nnc3sc4nc5ccccc5c-4nn23)c(Cl)c1 | > 100 | > 100 | > 100 | 68.8 | > 100 | > 100 | > 100 | > 100 | > 100 | > 100 | – | – | – | – | – | – | – | – | – | –
29 | O=C(O)CN1CCN2CCCCCN(CC1)CCN(CC(=O)O)CC2 | > 100 | > 100 | > 100 | > 100 | > 100 | > 100 | > 100 | > 100 | > 100 | > 100 | – | – | – | – | – | – | – | – | – | –
30 | CC(C)SC(=S)Sc1c(Cl)c(Cl)nc(Cl)c1Cl | 31.5 | 18.6 | 11.3 | 21.4 | 44.7 | 30.1 | 11.6 | > 100 | 11.3 | 15.9 | – | – | – | – | – | – | – | – | – | –
31 | O=C1NC2c3c(I)sc(I)c3C(O)C2O1 (stereo not drawn) | > 100 | > 100 | > 100 | > 100 | > 100 | > 100 | – | > 100 | > 100 | > 100 | – | – | – | – | – | – | – | – | – | –
